The compounds below were run on NL-RLuc virus (recombinant NL4-3 proviral clone with Renilla Luciferase gene) (assay: Inhibition of HIV replication (NL-RLuc reporter virus in MT-2 cells)). Settings: MT-2 cells infected with NL-RLuc virus, 5 days of incubation, luciferase readout; read-out: Activity.
Assay type: cell-based
Excerpt: Inhibition of HIV replication: A recombinant NL-RLuc proviral clone was constructed in which a section of the nef gene from NL4-3 was replaced with the Renilla Luciferase gene. This virus is fully infectious and can undergo multiple cycles of replication in cell culture. In addition, the luciferous reporter provides a simple and easy method for quantitating the extent of virus growth and consequently, the antiviral activity of test compounds. The plasmid pNLRLuc contains the proviral NL-Rluc DNA cloned into pUC18 at the PvuII site. The NL-RLuc virus was prepared by transfection of 293T cells with the plasmid pNLRLuc. Transfections were performed using the LipofectAMINE PLUS kit from Invitrogen (Carlsbad, Calif.) according to the manufacturer and the virus generated was titered in MT-2 cells. For susceptibility analyses, the titrated virus was used to infect MT-2 cells in the presence of compound, and after 5 days of incubation, cells were processed and quantitated for virus growth by the amount of expressed luciferase. Assay media was RPMI 1640 supplemented with 10% heat inactivated fetal bovine serum (FBS), 100 units/ml penicillin G/100 units/ml streptomycin, 10 mM HEPES buffer pH 7.55 and 2 mM L-glutamine. The results from at least 2 experiments were used to calculate the EC50 values. Luciferase was quantitated using the Dual Luciferase kit from Promega (Madison, Wis.). Susceptibility of viruses to compounds was determined by incubation in the presence of serial dilutions of the compound. The 50% effective concentration (EC50) was calculated by using the exponential form of the median effect equation where (Fa)=1/[1+(ED50/drug conc.)^m] (Johnson V A, Byington R T. Infectivity Assay. In Techniques in HIV Research. ed. Aldovini A, Walker B D. 71-76. New York: Stockton Press.1990). Activity equal to A refers to a compound having an EC50≤100 nM, while B and C denote compounds having an EC50 between 100 nM and 1 uM (B) or >1 uM (C).

Compound	EC50 [µM]
(S)-2-(tert-Butoxy)-2-(4-(4,4-dimethylpiperidin-1-yl)-5-(4-(1-(4-fluorobenzyl)-1H-tetrazol-5-yl)phenyl)-2,6-dimethylpyridin-3-yl)acetic acid and/or (S)-2-(tert-Butoxy)-2-(4-(4,4-dimethylpiperidin-1-yl)-5-(4-(2-(4-fluorobenzyl)-2H-tetrazol-5-yl)phenyl)-2,6-dimethylpyridin-3-yl)acetic acid [Example 86]	< 0.1

Same assay, conditions: Renilla, NL43, 120 h, read-out: Activity

Compound	EC50 [µM]
Cc1nc(C)c([C@H](OC(C)(C)C)C(=O)O)c(N2CCC(C)(C#N)CC2)c1-c1ccc(C(=O)NCc2ccccc2)cc1 [Example 61, (S)-2-(5-(4-(Benzylcarbamoyl)phenyl)-4-(4-cyano-4-methylpiperidin-1-yl)-2,6-dimethylpyridin-3-yl)-2-(tert-butoxy)acetic acid]	0.1 to 1
Cc1ccc(-c2c(C)nc(C)c([C@H](OC(C)(C)C)C(=O)O)c2N2CCC(C)(C)CC2)cc1F [Example 19, (S)-2-(tert-Butoxy)-2-(4-(4,4-dimethylpiperidin-1-yl)-5-(3-fluoro-4-methylphenyl)-2,6-dimethylpyridin-3-yl)acetic acid]	< 0.1
CCCCCc1ccc(-c2c(C)nc(C)c([C@H](OC(C)(C)C)C(=O)O)c2N2CCC(C)(C)CC2)cc1 [Example 22, (S)-2-(tert-Butoxy)-2-(4-(4,4-dimethylpiperidin-1-yl)-2,6-dimethyl-5-(4-pentylphenyl)pyridin-3-yl)acetic acid]	< 0.1
COC1(C)CCN(c2c(-c3ccc(C(=O)NCc4ccccc4)cc3)c(C)nc(C)c2[C@H](OC(C)(C)C)C(=O)O)CC1 [Example 60, (S)-2-(5-(4-(Benzylcarbamoyl)phenyl)-4-(4-methoxy-4-methylpiperidin-1-yl)-2,6-dimethylpyridin-3-yl)-2-(tert-butoxy)acetic acid]	< 0.1
CC(=O)NNC(=O)c1ccc(-c2c(C)nc(C)c([C@H](OC(C)(C)C)C(=O)O)c2N2CCC(C)(C)CC2)cc1 [Example 37, (S)-2-(5-(4-(2-Acetylhydrazinecarbonyl)phenyl)-4-(4,4-dimethylpiperidin-1-yl)-2,6-dimethylpyridin-3-yl)-2-(tert-butoxy)acetic acid]	> 1
Cc1nc(C)c([C@H](OC(C)(C)C)C(=O)O)c(N2CCC(C)(C)CC2)c1-c1ccc(C(=O)O)c(C(=O)NCc2ccccc2)c1 [Example 45, (S)-2-(benzylcarbamoyl)-4-(5-(tert-butoxy(carboxy)methyl)-4-(4,4-dimethylpiperidin-1-yl)-2,6-dimethylpyridin-3-yl)benzoic acid]	0.1 to 1
Cc1nc(C)c([C@H](OC(C)(C)C)C(=O)O)c(N2CCC(C)(C)CC2)c1-c1ccc(C(=O)CCc2ccc(F)cc2)cc1 [Example 50, (S)-2-(tert-Butoxy)-2-(4-(4,4-dimethylpiperidin-1-yl)-5-(4-(3-(4-fluorophenyl)propanoyl)phenyl)-2,6-dimethylpyridin-3-yl)acetic acid]	< 0.1
Cc1nc(C)c([C@H](OC(C)(C)C)C(=O)O)c(N2CCC(C)(C)CC2)c1-c1ccc(C(=O)NC2CC2)cc1 [Example 43, (S)-2-(tert-Butoxy)-2-(5-(4-(cyclopropylcarbamoyl)phenyl)-4-(4,4-dimethylpiperidin-1-yl)-2,6-dimethylpyridin-3-yl)acetic acid]	< 0.1
Cc1nc(C)c([C@H](OC(C)(C)C)C(=O)O)c(N2CCC(C)(F)CC2)c1-c1ccc(C(=O)NCc2ccccc2)cc1 [Example 65, (S)-2-(5-(4-(Benzylcarbamoyl)phenyl)-4-(4-fluoro-4-methylpiperidin-1-yl)-2,6-dimethylpyridin-3-yl)-2-(tert-butoxy)acetic acid]	< 0.1
CCOc1cc(F)cc(F)c1CNC(=O)c1ccc(-c2c(C)nc(C)c([C@H](OC(C)(C)C)C(=O)O)c2N2CCC(C)(C)CC2)cc1 [Example 67, (S)-2-(tert-Butoxy)-2-(4-(4,4-dimethylpiperidin-1-yl)-5-(4-((2-ethoxy-4,6-difluorobenzyl)carbamoyl)phenyl)-2,6-dimethylpyridin-3-yl)acetic acid]	< 0.1
Cc1nc(C)c([C@H](OC(C)(C)C)C(=O)O)c(N2CCC(C)(C)CC2)c1-c1ccc(CC(N)=O)cc1 [Example 26, (S)-2-(5-(4-(2-Amino-2-oxoethyl)phenyl)-4-(4,4-dimethylpiperidin-1-yl)-2,6-dimethylpyridin-3-yl)-2-(tert-butoxy)acetic acid]	0.1 to 1
Cc1nc(C)c([C@H](OC(C)(C)C)C(=O)O)c(N2CC(C)CC(C)C2)c1-c1ccc(C(=O)NCc2ccccc2)cc1 (stereo partly shown) [Example 53]	0.1 to 1
CC(C)=C1CCN(c2c(-c3ccc(C(=O)NCc4ccccc4)cc3)c(C)nc(C)c2[C@H](OC(C)(C)C)C(=O)O)CC1 [Example 63, (S)-2-(5-(4-(Benzylcarbamoyl)phenyl)-2,6-dimethyl-4-(4-(propan-2-ylidene)piperidin-1-yl)pyridin-3-yl)-2-(tert-butoxy)acetic acid]	0.1 to 1
Cc1nc(C)c([C@H](OC(C)(C)C)C(=O)O)c(N2CCC(C)(C)CC2)c1-c1ccc(-c2ncc(Cc3ccc(F)cc3)o2)cc1 [Example 4, (S)-2-(tert-Butoxy)-2-(4-(4,4-dimethylpiperidin-1-yl)-5-(4-(5-(4-fluorobenzyl)oxazol-2-yl)phenyl)-2,6-dimethylpyridin-3-yl)acetic acid]	< 0.1
Cc1nc(C)c([C@H](OC(C)(C)C)C(=O)O)c(N2CCC(C)(C)CC2)c1-c1ccc(N(C)CCc2ccc(F)cc2)cc1 [Example 76, (S)-2-(tert-Butoxy)-2-(4-(4,4-dimethylpiperidin-1-yl)-5-(4-((4-fluorophenethyl)(methyl)amino)phenyl)-2,6-dimethylpyridin-3-yl)acetic acid]	< 0.1
CCCOc1ccc(-c2ccc(-c3c(C)nc(C)c([C@H](OC(C)(C)C)C(=O)O)c3N3CCC(C)(C)CC3)cc2)cc1 [Example 9, (S)-2-(tert-Butoxy)-2-(4-(4,4-dimethylpiperidin-1-yl)-2,6-dimethyl-5-(4′-propoxy-[1,1′-biphenyl]-4-yl)pyridin-3-yl)acetic acid]	< 0.1
Cc1nc(C)c([C@H](OC(C)(C)C)C(=O)O)c(N2CCC(c3ccccc3)CC2)c1-c1ccc(C(=O)NCc2ccccc2)cc1 [Example 62, (S)-2-(5-(4-(Benzylcarbamoyl)phenyl)-2,6-dimethyl-4-(4-phenylpiperidin-1-yl)pyridin-3-yl)-2-(tert-butoxy)acetic acid]	> 1
Cc1nc(C)c([C@H](OC(C)(C)C)C(=O)O)c(N2CCC(C)(C)CC2)c1-c1ccc(S(=O)(=O)NC2CC2)cc1 [Example 35, (S)-2-(tert-Butoxy)-2-(5-(4-(N-cyclopropylsulfamoyl)phenyl)-4-(4,4-dimethylpiperidin-1-yl)-2,6-dimethylpyridin-3-yl)acetic acid]	0.1 to 1
Cc1cc(-c2c(C)nc(C)c([C@H](OC(C)(C)C)C(=O)O)c2N2CCC(C)(C)CC2)ccc1F [Example 39, (S)-2-(tert-Butoxy)-2-(4-(4,4-dimethylpiperidin-1-yl)-5-(4-fluoro-3-methylphenyl)-2,6-dimethylpyridin-3-yl)acetic acid]	< 0.1
Cc1nc(C)c([C@H](OC(C)(C)C)C(=O)O)c(N2CCC(C)CC2)c1-c1ccc(C(=O)NCc2ccccc2)cc1 [Example 58, (S)-2-(5-(4-(Benzylcarbamoyl)phenyl)-2,6-dimethyl-4-(4-methylpiperidin-1-yl)pyridin-3-yl)-2-(tert-butoxy)acetic acid]	< 0.1
Cc1nc(C)c([C@H](OC(C)(C)C)C(=O)O)c(N2CCC(C)(C)CC2)c1-c1ccc(CCCO)cc1 [Example 31, (S)-2-(tert-Butoxy)-2-(4-(4,4-dimethylpiperidin-1-yl)-5-(4-(3-hydroxypropyl)phenyl)-2,6-dimethylpyridin-3-yl)acetic acid]	< 0.1
Cc1nc(C)c([C@H](OC(C)(C)C)C(=O)O)c(N2CCC(C)(C)CC2)c1-c1ccc(-c2cccc3ccccc23)cc1 [Example 18, (S)-2-(tert-Butoxy)-2-(4-(4,4-dimethylpiperidin-1-yl)-2,6-dimethyl-5-(4-(naphthalen-1-yl)phenyl)pyridin-3-yl)acetic acid]	< 0.1
Cc1nc(C)c([C@H](OC(C)(C)C)C(=O)O)c(N2CC(C)(C)C2)c1-c1ccc(C(=O)NCc2ccccc2)cc1 [Example 57, (S)-2-(5-(4-(Benzylcarbamoyl)phenyl)-4-(3,3-dimethylazetidin-1-yl)-2,6-dimethylpyridin-3-yl)-2-(tert-butoxy)acetic acid]	> 1
Cc1nc(C)c([C@H](OC(C)(C)C)C(=O)O)c(N2CCC(C)(C)CC2)c1-c1ccccc1 [Example 7, (S)-2-(tert-Butoxy)-2-(4-(4,4-dimethylpiperidin-1-yl)-2,6-dimethyl-5-phenylpyridin-3-yl)acetic acid]	< 0.1

Same assay, conditions: Renilla, NL43, 120 h, read-out: EC50 μM

Compound	EC50 [µM]
CC(=O)NNC(=O)c1ccc(-c2c(C)nc(C)c([C@H](OC(C)(C)C)C(=O)O)c2N2CCC(C)(C)CC2)cc1 [Example 37, (S)-2-(5-(4-(2-Acetylhydrazinecarbonyl)phenyl)-4-(4,4-dimethylpiperidin-1-yl)-2,6-dimethylpyridin-3-yl)-2-(tert-butoxy)acetic acid]	1.15
Cc1nc(C)c([C@H](OC(C)(C)C)C(=O)O)c(N2CCC(C)(C)CC2)c1-c1ccc(CC(N)=O)cc1 [Example 26, (S)-2-(5-(4-(2-Amino-2-oxoethyl)phenyl)-4-(4,4-dimethylpiperidin-1-yl)-2,6-dimethylpyridin-3-yl)-2-(tert-butoxy)acetic acid]	0.373
Cc1nc(C)c([C@H](OC(C)(C)C)C(=O)O)c(N2CC(C)(C)C2)c1-c1ccc(C(=O)NCc2ccccc2)cc1 [Example 57, (S)-2-(5-(4-(Benzylcarbamoyl)phenyl)-4-(3,3-dimethylazetidin-1-yl)-2,6-dimethylpyridin-3-yl)-2-(tert-butoxy)acetic acid]	2.54

Reference: patent US20180170904A1, “PYRIDIN-3-YL ACETIC ACID DERIVATIVES AS INHIBITORS OF HUMAN IMMUNODEFICIENCY VIRUS REPLICATION” (priority 2015, published 2018)
